Laboratory results published in patent US5369095A, “Compositions and method comprising substituted glycosides as mucus membrane permeation enhancers” (priority 1993, dated 1994).

Legend:
[1] = Apparent permeability coefficient through excised cornea mounted between diffusion cells; format: in vitro ADME, Albino rabbits
Description: Albino rabbits were sacrificed, and within 15 minutes, the corneas were mounted and clamped between diffusion cells according to the published procedure by Schoenwald et al. (J. Pharm. Sci. 72, 1266, 1983). 7 ml of bicarbonated Ringer's solution containing reduced glutathione was added to the endothelial side to serve as the receiver solution. An equal volume of the same solution containing Atenolol, a β-blocker, with or without dodecyl maltoside (DDM) was added to the epithelial side to serve as the donor solution. The apparent permeability coefficient was calculated from the average cumulative amount of drug penetrating through the cornea over time according to Schoenwald.
The procedure in Example 8 was repeated with the following para-amino clonidine formulations.
The procedure of Example 8 was repeated with Atenolol except dodecyl maltoside was substituted with 0.1% amount by weight of each of the following substituted glycosides of this invention and the following results were obtained.

[2] = Penetration of para-aminoclonidine through the cornea: amount in aqueous humor after topical dosing, liquid scintillation counting; format: in vivo, New Zealand albino rabbits; conditions: 60 minutes; 0.125% para-amino-clonidine with 0.05% dodecyl maltoside versus drug without dodecyl maltoside; 30 ul topical
Description: Nine New Zealand albino rabbits were selected for evaluation of the penetration through the cornea of the para-amino-clonidine formulation set forth above. All rabbits received 30 ul of the 0.125% para-amino-clonidinetopically in both eyes. Three rabbits were sacrificed at 20 minutes from dosing and aqueous humor was withdrawn from their eyes. The aqueous humor as assayed by liquid scintillation counting to determine the amount of para-amino-clonidine in the aqueous humor. The same procedure was done on 3 different rabbits at 60 minutes from dosing and on another 3 rabbits, 120 minutes from dosing. […] Aqueous humor was withdrawn and assayed as explained above.
Nine New Zealand albino rabbits were selected for evaluation of the penetration through the cornea of the para-amino-clonidine formulation set forth above. All rabbits received 30 ul of the 0.125% para-amino-clonidinetopically in both eyes. Three rabbits were sacrificed at 20 minutes from dosing and their aqueous humor was withdrawn from their eyes. The aqueous humor was assayed by liquid scintillation counting to determine the amount of para-amino-clonidine in the aqueous humor. The same procedure was done on three different rabbits at 60 minutes from dosing and on another three rabbits, 120 minutes from dosing. […] Aqueous humor was withdrawn and assayed as explained above.

Compound | Permeability Coefficient ([1]; rabbit) [cm/sec × 10^-6] | increase in the amount of para-aminoclonidine found in the aqueous humor [2] | permeation for para-amino clonidine as compared to control [1]
Lysophosphatidyl Inositol | 14.0 |  | 
CCCCCCCCCCCCO[C@@H]1O[C@H](CO)[C@@H](O[C@H]2O[C@H](CO)[C@@H](O)[C@H](O)[C@H]2O)[C@H](O)[C@H]1O [dodecyl maltoside, Dodecyl maltoside] |  | four | superior permeation
